“And” between values parts separate entries of the source, which are not always exact repeats. Equal values may be shown once.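 The compound was tested at five concentrations on cells cultured in 96-well plates, with a 48-hour exposure period. At the GI50, growth is halved. At the TGI there is no net growth.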
Tests used:
Assay in all cases: DTP human tumour cell line panel, 48 h
ACHN renal = system: ACHN renal
COLO 205 colon = system: COLO 205 colon
EKVX NSCLC = system: EKVX NSCLC
HCC-2998 colon = system: HCC-2998 colon
MALME-3M melanoma = system: MALME-3M melanoma
MCF7 breast = system: MCF7 breast
NCI-H460 lung = system: NCI-H460 lung
OVCAR-3 ovarian = system: OVCAR-3 ovarian
SK-MEL-28 melanoma = system: SK-MEL-28 melanoma
U251 CNS = system: U251 CNS

`OCCCCC#Cc1ccccc1C#Cc1ccccc1C(F)(F)F` was tested, and the GI50 (ACHN renal) was 11.4 µM, the TGI (ACHN renal) was 23.5 µM and the GI50 (COLO 205 colon) was 17.7 µM. The TGI (COLO 205 colon) was 33.9 µM, the GI50 (EKVX NSCLC) was 12.7 µM and the TGI (EKVX NSCLC) was 26.8 µM. For the same molecule, the GI50 (HCC-2998 colon) was 3.64 µM, the TGI (HCC-2998 colon) was 13.9 µM and the GI50 (MALME-3M melanoma) was 14.7 µM. It also gave a TGI (MALME-3M melanoma) of 37.5 µM, a GI50 (MCF7 breast) of 10.6 µM and a TGI (MCF7 breast) of 31.6 µM. For the same molecule, the GI50 (NCI-H460 lung) was 17.9 µM, the TGI (NCI-H460 lung) was 34.7 µM and the GI50 (OVCAR-3 ovarian) was 2.3 µM. The TGI (OVCAR-3 ovarian) was 9.28 µM, the GI50 (SK-MEL-28 melanoma) was 13.2 µM and the TGI (SK-MEL-28 melanoma) was 28.5 µM. For the same molecule, the GI50 (U251 CNS) was 4.63 µM and the TGI (U251 CNS) was 17.9 µM.

With `CNC(=O)c1cccc(-c2ccc3c(N4CCOC[C@@H]4C)nc(N4CCOC[C@@H]4C)nc3n2)c1` the GI50 (ACHN renal) was 0.095 µM and 0.115 µM and 0.119 µM, the TGI (ACHN renal) was greater than 100 µM and the GI50 (COLO 205 colon) was 0.0648 µM and 0.204 µM and 0.142 µM. For the same molecule, the GI50 (EKVX NSCLC) was 0.0998 µM and 0.139 µM, the TGI (EKVX NSCLC) was 0.765 µM and 2 µM and the GI50 (HCC-2998 colon) was 0.221 µM and 0.43 µM and 0.182 µM. For the same molecule, the TGI (HCC-2998 colon) was > 100 µM and > 10 µM and 36.6 µM, the GI50 (MALME-3M melanoma) was 0.0201 µM and 0.0351 µM and < 0.0204 µM and the TGI (MALME-3M melanoma) was 0.55 µM and 0.524 µM and 0.138 µM. The GI50 (MCF7 breast) was 0.0295 µM and 0.098 µM and 0.0368 µM, the TGI (MCF7 breast) was 5.51 µM and > 3.46 µM and 9.7 µM and the GI50 (NCI-H460 lung) was 0.0422 µM and 0.0853 µM and 0.0538 µM. The TGI (NCI-H460 lung) was greater than 100 µM, the GI50 (OVCAR-3 ovarian) was 0.0597 µM and 0.222 µM and 0.139 µM and the GI50 (SK-MEL-28 melanoma) was 0.041 µM and 0.123 µM and 0.0402 µM. For the same molecule, the TGI (SK-MEL-28 melanoma) was 0.72 µM and 3.01 µM and 0.671 µM, the GI50 (U251 CNS) was 0.236 µM and 0.422 µM and 0.176 µM and the TGI (U251 CNS) was greater than 100 µM.

For `Nc1ccccc1C#C/C=C\C#Cc1ccc(Cl)cc1Cl`, the GI50 (ACHN renal) was 20.9 µM, the TGI (ACHN renal) was 41.7 µM and the GI50 (COLO 205 colon) was 23.8 µM. For the same molecule, the TGI (COLO 205 colon) was greater than 100 µM, the GI50 (EKVX NSCLC) was 18.8 µM and the TGI (EKVX NSCLC) was 47.9 µM. It also gave a GI50 (HCC-2998 colon) of 3.37 µM, a TGI (HCC-2998 colon) of 9.58 µM and a GI50 (MALME-3M melanoma) of 1.87 µM. It also gave a TGI (MALME-3M melanoma) of 17.2 µM, a GI50 (MCF7 breast) of 3.52 µM and a TGI (MCF7 breast) of 39.7 µM. The GI50 (NCI-H460 lung) was 10.7 µM, the TGI (NCI-H460 lung) was 26.5 µM and the GI50 (OVCAR-3 ovarian) was 5.19 µM. For the same molecule, the TGI (OVCAR-3 ovarian) was 17.9 µM, the GI50 (SK-MEL-28 melanoma) was 27 µM and the TGI (SK-MEL-28 melanoma) was greater than 100 µM. The GI50 (U251 CNS) was 15.3 µM and the TGI (U251 CNS) was 34 µM.

In the case of `C/C=C(\C)C(=O)O[C@H]1C=CC(=O)O[C@H]1CNC(=O)[C@H](C)O`, the GI50 (ACHN renal) is reported as 15.7 µM, the TGI (ACHN renal) is reported as 29.9 µM and the GI50 (COLO 205 colon) is reported as 12.6 µM. It also gave a TGI (COLO 205 colon) of 29.3 µM, a GI50 (EKVX NSCLC) of 26.2 µM and a TGI (EKVX NSCLC) of 67.4 µM. It also gave a GI50 (HCC-2998 colon) of 17.7 µM, a TGI (HCC-2998 colon) of 33.7 µM and a GI50 (MALME-3M melanoma) of 18.5 µM. The TGI (MALME-3M melanoma) was 35.1 µM, the GI50 (MCF7 breast) was 19.7 µM and the TGI (MCF7 breast) was 42.3 µM. It also gave a GI50 (NCI-H460 lung) of 28.2 µM, a TGI (NCI-H460 lung) of 94.2 µM and a GI50 (OVCAR-3 ovarian) of 17 µM. It also gave a TGI (OVCAR-3 ovarian) of 30.9 µM, a GI50 (SK-MEL-28 melanoma) of 17.4 µM and a TGI (SK-MEL-28 melanoma) of 32.4 µM. The GI50 (U251 CNS) was 15.7 µM and the TGI (U251 CNS) was 29.9 µM.

`COC(=O)/C(=C\c1c(C)[nH]c2ccccc12)S(=O)(=O)c1ccccc1` showed a GI50 (ACHN renal) of 5.52 µM, a TGI (ACHN renal) of 18.5 µM and a GI50 (COLO 205 colon) of 7.45 µM. The TGI (COLO 205 colon) was 22.1 µM, the GI50 (EKVX NSCLC) was 5.04 µM and the TGI (EKVX NSCLC) was greater than 100 µM. The GI50 (HCC-2998 colon) was 4.89 µM, the TGI (HCC-2998 colon) was 17.4 µM and the GI50 (MALME-3M melanoma) was 7.27 µM. The TGI (MALME-3M melanoma) was 32.6 µM, the GI50 (MCF7 breast) was 2.81 µM and the TGI (MCF7 breast) was 12.5 µM. It also gave a GI50 (NCI-H460 lung) of 2.99 µM, a TGI (NCI-H460 lung) of 9.61 µM and a GI50 (OVCAR-3 ovarian) of 2.7 µM. It also gave a TGI (OVCAR-3 ovarian) of 7.56 µM, a GI50 (SK-MEL-28 melanoma) of 5.78 µM and a TGI (SK-MEL-28 melanoma) of 18.7 µM. It also gave a GI50 (U251 CNS) of 3.42 µM and a TGI (U251 CNS) of 12.6 µM.

Work on `CC(C)(O)C1OCC(C2CCC3(C)C4=CCC5C(C)(C)C(O)CCC5(C)C4CCC23C)CC1O` (configuration not stated) yielded a TGI (ACHN renal) of 28.6 µM, a TGI (COLO 205 colon) of 31.5 µM and a TGI (EKVX NSCLC) of 32.3 µM. For the same molecule, the TGI (HCC-2998 colon) was 30.1 µM, the TGI (MALME-3M melanoma) was 39.5 µM and the TGI (MCF7 breast) was 23.8 µM. The TGI (NCI-H460 lung) was 26.1 µM, the TGI (OVCAR-3 ovarian) was 40 µM and the TGI (SK-MEL-28 melanoma) was 29.2 µM. For the same molecule, the TGI (U251 CNS) was 27.5 µM.

Work on `C=C1C(=O)OC2CC3(CO3)C3C(O)C(O)CC3(C)CC12` (configuration not stated) yielded a TGI (ACHN renal) of 35.5 µM, a TGI (COLO 205 colon) of 81.2 µM and a TGI (EKVX NSCLC) of 37.2 µM. It also gave a TGI (HCC-2998 colon) of 33.9 µM, a TGI (MALME-3M melanoma) of 37.5 µM and a TGI (MCF7 breast) of 62.1 µM. For the same molecule, the TGI (NCI-H460 lung) was greater than 100 µM, the TGI (OVCAR-3 ovarian) was 55.6 µM and the TGI (SK-MEL-28 melanoma) was 34.8 µM. The TGI (U251 CNS) was greater than 100 µM.

`O=C(NC(=S)Nc1ccc(Cl)cc1)c1ccccc1` gave a GI50 (ACHN renal) greater than 100 µM, a TGI (ACHN renal) greater than 100 µM and a GI50 (COLO 205 colon) greater than 100 µM. It also gave a TGI (COLO 205 colon) greater than 100 µM, a GI50 (EKVX NSCLC) greater than 100 µM and a TGI (EKVX NSCLC) greater than 100 µM. It also gave a GI50 (HCC-2998 colon) greater than 100 µM, a TGI (HCC-2998 colon) greater than 100 µM and a GI50 (MALME-3M melanoma) greater than 100 µM. For the same molecule, the TGI (MALME-3M melanoma) was greater than 100 µM, the GI50 (MCF7 breast) was 2.85 µM and the GI50 (NCI-H460 lung) was greater than 100 µM. It also gave a TGI (NCI-H460 lung) greater than 100 µM, a GI50 (OVCAR-3 ovarian) greater than 70.6 µM and a TGI (OVCAR-3 ovarian) greater than 100 µM. The GI50 (SK-MEL-28 melanoma) was greater than 100 µM, the TGI (SK-MEL-28 melanoma) was greater than 100 µM and the GI50 (U251 CNS) was greater than 77.2 µM. The TGI (U251 CNS) was greater than 100 µM.

`COc1ccc(-c2nc(-c3cn(C)c4ncccc34)cs2)cc1` gave a GI50 (ACHN renal) of 91.7 µM, a TGI (ACHN renal) greater than 100 µM and a GI50 (COLO 205 colon) of 29 µM. The TGI (COLO 205 colon) was greater than 100 µM, the GI50 (EKVX NSCLC) was 17.4 µM and the TGI (EKVX NSCLC) was greater than 100 µM. It also gave a GI50 (HCC-2998 colon) of 80.6 µM, a TGI (HCC-2998 colon) greater than 100 µM and a GI50 (MALME-3M melanoma) of 22.2 µM. For the same molecule, the TGI (MALME-3M melanoma) was greater than 100 µM, the GI50 (MCF7 breast) was 12.5 µM and the TGI (MCF7 breast) was greater than 100 µM. For the same molecule, the GI50 (NCI-H460 lung) was 32.9 µM, the TGI (NCI-H460 lung) was greater than 100 µM and the GI50 (OVCAR-3 ovarian) was 41.6 µM. For the same molecule, the TGI (OVCAR-3 ovarian) was greater than 100 µM, the GI50 (SK-MEL-28 melanoma) was 79.3 µM and the TGI (SK-MEL-28 melanoma) was greater than 100 µM. It also gave a GI50 (U251 CNS) of 78.5 µM and a TGI (U251 CNS) greater than 100 µM.

Molecule `O=C1c2ccccc2-c2c1c1ccccc1c(=O)n2CCNCCNCCn1c2c(c3ccccc3c1=O)C(=O)c1ccccc1-2` has a GI50 (ACHN renal) of 0.0217 µM, a TGI (ACHN renal) of 17 µM and a GI50 (COLO 205 colon) of 2.62 µM. It also gave a TGI (COLO 205 colon) greater than 60.8 µM, a GI50 (EKVX NSCLC) of 10.6 µM and a TGI (EKVX NSCLC) of 27.2 µM. For the same molecule, the GI50 (HCC-2998 colon) was 0.279 µM, the TGI (HCC-2998 colon) was 14.9 µM and the GI50 (MALME-3M melanoma) was 0.207 µM. It also gave a TGI (MALME-3M melanoma) of 16.2 µM, a GI50 (MCF7 breast) of 0.109 µM and a TGI (MCF7 breast) of 1.06 µM. The GI50 (NCI-H460 lung) was 0.0246 µM, the TGI (NCI-H460 lung) was 7.59 µM and the GI50 (OVCAR-3 ovarian) was 1.02 µM. For the same molecule, the TGI (OVCAR-3 ovarian) was 8.98 µM, the GI50 (SK-MEL-28 melanoma) was 2.9 µM and the TGI (SK-MEL-28 melanoma) was 24.5 µM. It also gave a GI50 (U251 CNS) of 0.0382 µM and a TGI (U251 CNS) of 1.59 µM.

— PubChem BioAssay (NCI)
